From article PMC6691788, “Design and synthesis of phthalazine-based compounds as potent anticancer agents with potential antiangiogenic activity via VEGFR-2 inhibition” (Journal of Enzyme Inhibition and Medicinal Chemistry, 2019)

Columns and labels:
NCI-H522 = assay: NCI 60 cell panel SRB screen; format: cell-based; conditions: Homo sapiens; NCI-H522, single dose 10 μM; read-out: percent cell growth promotion
NCI-H23 = assay: NCI 60 cell panel SRB screen; format: cell-based; conditions: Homo sapiens; NCI-H23, single dose 10 μM; read-out: percent cell growth promotion
OVCAR-4 = assay: NCI 60 cell panel SRB screen; format: cell-based; conditions: Homo sapiens; OVCAR-4, single dose 10 μM; read-out: percent cell growth promotion
NCI-H226 = assay: NCI 60 cell panel SRB screen; format: cell-based; conditions: Homo sapiens; NCI-H226, single dose 10 μM; read-out: percent cell growth promotion
SNB-75 = assay: NCI 60 cell panel SRB screen; format: cell-based; conditions: Homo sapiens; SNB-75, single dose 10 μM; read-out: percent cell growth promotion
CCRF-CEM = assay: NCI 60 cell panel SRB screen; format: cell-based, human; conditions: Homo sapiens, single dose 10 μM, read-out: percent cell growth promotion
BT-549 = assay: NCI 60 cell panel SRB screen; format: cell-based; conditions: Homo sapiens, BT-549, read-out: percent cell growth promotion
LOX IMVI = assay: NCI 60 cell panel SRB screen; format: cell-based; conditions: Homo sapiens, read-out: percent cell growth promotion
SW-620 = assay: NCI 60 cell panel SRB screen; format: cell-based; conditions: Homo sapiens; SW-620, single dose 10 μM; read-out: percent cell growth promotion
MALME-3M = assay: NCI 60 cell panel SRB screen; format: cell-based; conditions: Homo sapiens, Malme-3M, read-out: percent cell growth promotion
COLO 205 = assay: NCI 60 cell panel SRB screen; format: cell-based; conditions: Homo sapiens; COLO 205, single dose 10 μM; read-out: percent cell growth promotion
T-47D = assay: NCI 60 cell panel SRB screen; format: cell-based; conditions: Homo sapiens, T47D, read-out: percent cell growth promotion
K-562 = assay: NCI 60 cell panel SRB screen; format: cell-based; conditions: Homo sapiens, K562; K-562, single dose 10 μM; read-out: percent cell growth promotion
RPMI-8226 = assay: NCI 60 cell panel SRB screen; format: cell-based; conditions: Homo sapiens; RPMI-8226, single dose 10 μM; read-out: percent cell growth promotion
VEGFR-2 tyrosine kinase = molecular target: T1, VEGFR-2 tyrosine kinase (Homo sapiens, UniProt P35968); assay: In vitro VEGFR-2 tyrosine kinase assay (BPS Bioscience); format: biochemical; conditions: read-out: VEGFR-2 % inhibition; 10 μM concentration
T1 construct: purchased BPS Bioscience 40301
T1 sequence (P35968 20-1356): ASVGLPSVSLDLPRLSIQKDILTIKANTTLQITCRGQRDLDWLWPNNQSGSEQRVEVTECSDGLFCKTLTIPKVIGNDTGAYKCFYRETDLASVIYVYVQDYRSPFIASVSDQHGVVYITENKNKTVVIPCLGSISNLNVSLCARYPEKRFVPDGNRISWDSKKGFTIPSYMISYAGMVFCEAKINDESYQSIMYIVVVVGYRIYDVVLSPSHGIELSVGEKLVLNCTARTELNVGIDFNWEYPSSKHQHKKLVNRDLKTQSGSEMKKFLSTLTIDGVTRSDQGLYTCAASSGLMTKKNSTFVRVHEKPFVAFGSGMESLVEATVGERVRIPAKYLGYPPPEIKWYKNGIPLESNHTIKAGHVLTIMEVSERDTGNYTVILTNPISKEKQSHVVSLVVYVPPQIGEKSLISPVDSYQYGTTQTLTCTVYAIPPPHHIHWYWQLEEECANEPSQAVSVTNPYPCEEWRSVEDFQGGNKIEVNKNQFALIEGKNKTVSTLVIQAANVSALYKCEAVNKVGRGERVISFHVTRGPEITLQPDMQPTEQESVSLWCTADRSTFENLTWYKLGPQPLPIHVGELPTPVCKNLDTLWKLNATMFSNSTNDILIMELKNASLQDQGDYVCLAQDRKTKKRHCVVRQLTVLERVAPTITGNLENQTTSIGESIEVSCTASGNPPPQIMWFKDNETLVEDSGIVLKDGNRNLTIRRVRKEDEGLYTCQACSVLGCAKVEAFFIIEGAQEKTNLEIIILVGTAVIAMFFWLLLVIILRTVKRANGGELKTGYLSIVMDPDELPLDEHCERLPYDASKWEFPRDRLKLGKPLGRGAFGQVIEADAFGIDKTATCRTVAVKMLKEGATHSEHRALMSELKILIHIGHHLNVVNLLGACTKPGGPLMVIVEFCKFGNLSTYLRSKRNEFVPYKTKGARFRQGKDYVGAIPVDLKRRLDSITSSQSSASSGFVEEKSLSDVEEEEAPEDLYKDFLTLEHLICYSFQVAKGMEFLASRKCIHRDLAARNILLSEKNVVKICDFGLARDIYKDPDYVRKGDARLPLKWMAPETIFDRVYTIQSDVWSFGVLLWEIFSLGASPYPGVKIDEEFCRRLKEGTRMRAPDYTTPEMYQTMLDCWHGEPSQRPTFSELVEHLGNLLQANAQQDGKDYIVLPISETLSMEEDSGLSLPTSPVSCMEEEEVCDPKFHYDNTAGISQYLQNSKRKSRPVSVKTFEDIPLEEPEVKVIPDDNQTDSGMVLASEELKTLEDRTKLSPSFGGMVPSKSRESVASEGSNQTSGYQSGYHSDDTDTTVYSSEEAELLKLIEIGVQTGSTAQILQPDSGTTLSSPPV
Method: The VEGFR tyrosine kinase assays were performed at BPS Bioscience (www.bpsbioscience.com). All the synthesised compounds representing the six series were evaluated for their ability to inhibit VEGFR-2 tyrosine kinase at single dose of 10 µM.
The VEGFR tyrosine kinase activity at single dose concentration of 10 μM was carried out by BPS Bioscience (www.bpsbioscience.com). VEGFR (BPS#40301) served as the enzyme source and Poly (Glu, Tyr) sodium salt, (4:1, Glu:Tyr) (Sigma#P7244) served as the standardized substrate & Kinase-Glo Plus Luminescence kinase assay kit (Promega#V3772). The IC50 determination was carried out where quality control testing is routinely performed on each of the targets to insure compliance to acceptable standards. ^33P-ATP was purchased from Perkin Elmer and ADP-Glo^TM was purchased from Promega. All other materials were of standard laboratory grade.
The VEGFR tyrosine kinase activity was performed using Kinase-Glo Plus luminescence kinase assay kit (Promega). It measures kinase activity by quantitating the amount of ATP remaining in solution following a kinase reaction. The luminescent signal from the assay is correlated with the amount of ATP present and is inversely correlated with the amount of kinase activity. The compounds were diluted to 100 μM in 10% DMSO and […] of the dilution was added to a […] reaction so that the final concentration of DMSO is 1% in all of reactions. All of the enzymatic reactions were conducted at 30 °C for 40 min. The 50 μl reaction mixture contains […], pH 7.4, […], 0.1 mg/ml BSA, 0.2 mg/ml Poly (Glu, Tyr) substrate, 10 μM ATP and VEGFR. After the enzymatic reaction, […] of Kinase-GloPlus Luminescence kinase assay solution (Promega) was added to each reaction and incubate the plate for 5 min at room temperature. Luminescence signal was measured using a BioTek Synergy 2 microplate reader. The protein kinase assays used to determine IC50 value were performed using ADP-GloTM assay kit from Promega which measures the generation of ADP by the protein kinase. Generation of ADP by the protein kinase reaction leads to an increase in luminescence signal in the presence of ADP-GloTM assay kit. The assay was started by incubating the reaction mixture in a 96-well plate at 30 °C for 30 min. After the 30 min incubation period, the assay was terminated by the addition of […] of ADP-GloTM Reagent (Promega). The 96 well plate was shaken and then incubated for 40 min at ambient temperature. […] of Kinase detection reagent was added, the 96-well reaction plate was then read using the ADP-Glo Luminescences Protocol on a GloMax plate reader (Promega: Catalog #E7031). Blank control was set up that included all the assay components except the addition of appropriate substrate (replace with equal volume of kinase assay buffer). The corrected activity for each protein kinase target was determined by removing the blank control value.
VEGFR activity assays were performed in duplicate at each concentration. The luminescence data were analyzed using the computer software, Graphpad Prism. The difference between luminescence intensities in the absence of VEGFR (Lut) and in the presence of VEGFR (Luc) was defined as 100% activity (Lut - Luc). […] IC50 determination for inhibitor against VEGFR was estimated by generating a graph of log inhibitor vs normalized response with variable using the Prism software.

SR = assay: NCI 60 cell panel SRB screen; format: cell-based; conditions: Homo sapiens, single dose 10 μM, read-out: percent cell growth promotion
786-0 = assay: NCI 60 cell panel SRB screen; format: cell-based; conditions: Homo sapiens; 786-0, single dose 10 μM; read-out: percent cell growth promotion
NCI-H322M = assay: NCI 60 cell panel SRB screen; format: cell-based; conditions: Homo sapiens, single dose 10 μM, read-out: percent cell growth promotion
SK-MEL-28 = assay: NCI 60 cell panel SRB screen; format: cell-based; conditions: Homo sapiens, SK-MEL-28, read-out: percent cell growth promotion
OVCAR-5 = assay: NCI 60 cell panel SRB screen; format: cell-based; conditions: Homo sapiens; OVCAR-5, single dose 10 μM; read-out: percent cell growth promotion

In the case of `O=C(Nc1ccc(Nc2nncc3ccccc23)cc1)c1ccc(Cl)cc1` [Compound 5b, 4-Chloro-N-(4-(phthalazin-1-ylamino)phenyl)benzamide], the activity at 10 µM (NCI-H522) was 96.8%, the activity at 10 µM (NCI-H23) was 98.5% and the activity at 10 µM (OVCAR-4) was 106%. The activity at 10 µM (NCI-H226) was 77.9%, the activity at 10 µM (SNB-75) was 98.1% and the activity at 10 µM (CCRF-CEM) was 103%. The activity at 10 µM (BT-549) was 107%, the activity at 10 µM (LOX IMVI) was 99.9% and the activity at 10 µM (SW-620) was 102%. For the same compound, the activity at 10 µM (MALME-3M) was 99.6%, the activity at 10 µM (COLO 205) was 104% and the activity at 10 µM (T-47D) was 97.6%. For the same compound, the activity at 10 µM (K-562) was 102%, the activity at 10 µM (RPMI-8226) was 104% and the inhibition at 10 µM (VEGFR-2 tyrosine kinase) was 8%. The activity at 10 µM (SR) was 95%, the activity at 10 µM (786-0) was 107% and the activity at 10 µM (NCI-H322M) was 109%. The activity at 10 µM (SK-MEL-28) was 114%.
`Cc1nnc(N2CCN(c3ccccn3)CC2)c2ccccc12` [Compound 8i, 1-Methyl-4–(4-(pyridin-2-yl)piperazin-1-yl)phthalazine] gave an activity at 10 µM (NCI-H522) of 94.5%, an activity at 10 µM (OVCAR-5) of 98.2% and an activity at 10 µM (NCI-H23) of 106%. The activity at 10 µM (OVCAR-4) was 100%, the activity at 10 µM (NCI-H226) was 98.7% and the activity at 10 µM (SNB-75) was 114%. The activity at 10 µM (CCRF-CEM) was 102%, the activity at 10 µM (LOX IMVI) was 102% and the activity at 10 µM (SW-620) was 113%. The activity at 10 µM (MALME-3M) was 107%, the activity at 10 µM (COLO 205) was 113% and the activity at 10 µM (T-47D) was 96%. It also gave an activity at 10 µM (K-562) of 101%, an activity at 10 µM (RPMI-8226) of 104% and an inhibition at 10 µM (VEGFR-2 tyrosine kinase) of 6%. It also gave an activity at 10 µM (SR) of 92.1%, an activity at 10 µM (786-0) of 92.4% and an activity at 10 µM (NCI-H322M) of 107%. The activity at 10 µM (SK-MEL-28) was 101%.
